According to ChEMBL document CHEMBL5096145, “Evaluation of imidazo[2,1-b]thiazole-based anticancer agents in one decade (2011-2020): Current status and future prospects” (Bioorg Med Chem, 2021):

Key:
A-375 [1] = assay: Antiproliferative activity against human A375 cells measured after 48 hrs by MTT assay; assay type: functional, cell-based; conditions: A-375, 48 h
UACC-62 [2] = assay: Induction of apoptosis in human UACC-62 cells assessed as increase in caspase-3/7 release at 0.18 uM relative to control; assay type: functional
UACC-62 [3] = assay: Antiproliferative activity against human UACC-62 cells measured after 48 hrs by MTT assay; assay type: functional, cell-based; conditions: UACC-62, 48 h
MDA-MB-435 = assay: Antiproliferative activity against human MDA-MB-435 cells measured after 48 hrs by MTT assay; assay type: functional, cell-based; conditions: MDA-MB-435, 48 h
[4] = Inhibition of BRAF V600E mutant in MEF cells incubated for 90 mins; assay type: cell-based, Mus musculus
SK-MEL-28 = assay: Antiproliferative activity against human SK-MEL-28 cells measured after 48 hrs by MTT assay; assay type: functional, cell-based; conditions: SK-MEL-28, 48 h
MCF7 = assay: Antiproliferative activity against human MCF7 cells measured after 48 hrs by MTT assay; assay type: functional, cell-based; conditions: MCF7, 48 h
HeLa [5] = assay: Antiproliferative activity against human HeLa cells measured after 48 hrs by MTT assay; assay type: functional, cell-based
Ovarian cancer cell line = assay: Cytotoxicity against human ovarian cancer cell line assessed as reduction in cell viability by MTT assay relative to control; assay type: functional
[6] = Cytotoxicity against human Colon carcinoma cells assessed as reduction in cell viability by MTT assay relative to control; assay type: functional
A-375 [7] = assay: Cytotoxicity against human A-375 cells by MTT assay; assay type: functional, cell-based
[8] = Cytotoxicity against human L132 cells by MTT assay; assay type: toxicity, cell-based
Prostatic carcinoma cell = assay: Cytotoxicity against human prostatic carcinoma cell assessed as reduction in cell viability by MTT assay relative to control; assay type: functional
Breast carcinoma cell = assay: Cytotoxicity against human breast cancer cell line assessed as reduction in cell viability by MTT assay relative to control; assay type: functional
CNS carcinoma cell = assay: Cytotoxicity against human CNS carcinoma cells assessed as reduction in cell viability by MTT assay relative to control; assay type: functional
Renal cancer cell line = assay: Cytotoxicity against human renal cancer cell line assessed as reduction in cell viability by MTT assay relative to control; assay type: functional
Leukemic tumor cell line = assay: Cytotoxicity against human leukemic tumor cell line assessed as reduction in cell viability by MTT assay relative to control; assay type: functional
[9] = tested on: Serine/threonine-protein kinase B-raf (Homo sapiens), P15056 [V600E]; assay: Inhibition of human BRAF V600E mutant using MEK1 as substrate in presence of ATP relative to control; conditions: concentration not given here
[10] = tested on: Non-small cell lung cancer cell line; assay: Cytotoxicity against human non-small cell lung cancer cell line assessed as reduction in cell viability by MTT assay relative to control; assay type: functional
[11] = target: Serine/threonine-protein kinase B-raf (Homo sapiens, UniProt P15056, V600E); assay: Inhibition of human BRAF V600E mutant using MEK1 as substrate in presence of ATP
[12] = target: Serine/threonine-protein kinase B-raf (Homo sapiens) (UniProt P15056); assay: Inhibition of wildtype BRAF (unknown origin) using MEK1 as substrate in presence of ATP relative to control; conditions: concentration not given here
Melanoma tumor cell line = assay: Cytotoxicity against human melanoma tumor cell line assessed as reduction in cell viability by MTT assay relative to control; assay type: functional
HCT-116 = assay: Anticancer activity against human HCT-116 cells measured after 48 hrs by MTT assay; assay type: functional, cell-based; conditions: HCT-116, 48 h
MDA-MB-231 [13] = assay: Antiproliferative activity against human MDA-MB-231 cells measured after 48 hrs by MTT assay; assay type: functional, cell-based; conditions: MDA-MB-231, 48 h
NCI-H322M = assay: Anticancer activity against human NCI-H322M cells incubated for 48 hrs by SRB staining assay; assay type: functional
NCI-H460 = assay: Anticancer activity against human NCI-H460 cells incubated for 48 hrs by SRB staining assay; assay type: functional
HL-60(TB) = assay: Anticancer activity against human HL-60(TB) cells incubated for 48 hrs by SRB staining assay relative to control; assay type: functional
CAKI-1 = assay: Anticancer activity against human CAKI-1 cells incubated for 48 hrs by SRB staining assay; assay type: functional
MDA-MB-231 [14] = assay: Anticancer activity against human MDA-MB-231 cells incubated for 48 hrs by SRB staining assay; assay type: functional
SR [15] = assay: Anticancer activity against human SR cells incubated for 48 hrs by SRB staining assay; assay type: functional
DU-145 = assay: Anticancer activity against human DU-145 cells incubated for 48 hrs by SRB staining assay relative to control; assay type: functional
HCT-15 = assay: Anticancer activity against human HCT-15 cells incubated for 48 hrs by SRB staining assay; assay type: functional
SR [16] = assay: Anticancer activity against human SR cells incubated for 48 hrs by SRB staining assay relative to control; assay type: functional
SF-268 = assay: Anticancer activity against human SF-268 cells incubated for 48 hrs by SRB staining assay; assay type: functional
UO-31 = assay: Anticancer activity against human UO-31 cells incubated for 48 hrs by SRB staining assay; assay type: functional
CCRF-CEM = assay: Anticancer activity against human CCRF-CEM cells incubated for 48 hrs by SRB staining assay; assay type: functional
OVCAR-3 = assay: Anticancer activity against human OVCAR-3 cells incubated for 48 hrs by SRB staining assay; assay type: functional
MDA-MB-231 [17] = assay: Induction of cell cycle arrest in human MDA-MB-231 cells assessed as accumulation of cells at G0/G1 phase measured at 1 uM incubated for 24 hrs by flow cytometric analysis relative to control; assay type: functional
HeLa [18] = assay: Cytotoxicity against human HeLa cells expressing EGFR assessed as reduction in cell viability incubated for 24 hrs by MTT assay; assay type: functional, cell-based
L02 = assay: Cytotoxicity against human HL7702 cells expressing EGFR assessed as reduction in cell viability incubated for 24 hrs by MTT assay; assay type: functional, cell-based; conditions: L02, 24 h
HUVEC = assay: Cytotoxicity against HUVEC expressing EGFR assessed as reduction in cell viability incubated for 24 hrs by MTT assay; assay type: functional, cell-based; conditions: Homo sapiens
HepG2 = assay: Cytotoxicity against human HepG2 cells expressing EGFR assessed as reduction in cell viability incubated for 24 hrs by MTT assay; assay type: functional, cell-based; conditions: HepG2, 24 h

Serine/threonine-protein kinase B-raf, sequence (P15056 2-766 V600E limits assumed): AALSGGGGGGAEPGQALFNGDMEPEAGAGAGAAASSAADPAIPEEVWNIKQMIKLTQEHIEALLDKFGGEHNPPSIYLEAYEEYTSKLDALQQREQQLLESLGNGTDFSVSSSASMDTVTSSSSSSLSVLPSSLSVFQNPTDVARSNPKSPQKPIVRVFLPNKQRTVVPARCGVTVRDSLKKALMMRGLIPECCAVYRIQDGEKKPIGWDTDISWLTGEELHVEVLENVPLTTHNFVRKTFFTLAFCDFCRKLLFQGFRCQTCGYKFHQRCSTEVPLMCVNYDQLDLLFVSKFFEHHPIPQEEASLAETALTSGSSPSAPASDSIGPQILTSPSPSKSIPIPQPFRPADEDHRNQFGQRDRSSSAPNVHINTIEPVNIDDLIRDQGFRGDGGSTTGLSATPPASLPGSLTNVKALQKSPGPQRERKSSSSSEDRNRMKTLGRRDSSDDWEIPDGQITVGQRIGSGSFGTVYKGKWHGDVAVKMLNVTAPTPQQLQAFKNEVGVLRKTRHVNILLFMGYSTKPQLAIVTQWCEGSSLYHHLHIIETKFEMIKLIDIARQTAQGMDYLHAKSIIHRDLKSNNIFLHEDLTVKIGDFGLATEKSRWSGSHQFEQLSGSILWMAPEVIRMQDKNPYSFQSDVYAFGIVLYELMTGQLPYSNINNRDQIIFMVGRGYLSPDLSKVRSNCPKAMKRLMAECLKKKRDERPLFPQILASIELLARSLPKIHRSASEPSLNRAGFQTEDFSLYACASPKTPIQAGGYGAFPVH
Serine/threonine-protein kinase B-raf (Homo sapiens), P15056 [V600E], sequence (P15056 whole entry V600E): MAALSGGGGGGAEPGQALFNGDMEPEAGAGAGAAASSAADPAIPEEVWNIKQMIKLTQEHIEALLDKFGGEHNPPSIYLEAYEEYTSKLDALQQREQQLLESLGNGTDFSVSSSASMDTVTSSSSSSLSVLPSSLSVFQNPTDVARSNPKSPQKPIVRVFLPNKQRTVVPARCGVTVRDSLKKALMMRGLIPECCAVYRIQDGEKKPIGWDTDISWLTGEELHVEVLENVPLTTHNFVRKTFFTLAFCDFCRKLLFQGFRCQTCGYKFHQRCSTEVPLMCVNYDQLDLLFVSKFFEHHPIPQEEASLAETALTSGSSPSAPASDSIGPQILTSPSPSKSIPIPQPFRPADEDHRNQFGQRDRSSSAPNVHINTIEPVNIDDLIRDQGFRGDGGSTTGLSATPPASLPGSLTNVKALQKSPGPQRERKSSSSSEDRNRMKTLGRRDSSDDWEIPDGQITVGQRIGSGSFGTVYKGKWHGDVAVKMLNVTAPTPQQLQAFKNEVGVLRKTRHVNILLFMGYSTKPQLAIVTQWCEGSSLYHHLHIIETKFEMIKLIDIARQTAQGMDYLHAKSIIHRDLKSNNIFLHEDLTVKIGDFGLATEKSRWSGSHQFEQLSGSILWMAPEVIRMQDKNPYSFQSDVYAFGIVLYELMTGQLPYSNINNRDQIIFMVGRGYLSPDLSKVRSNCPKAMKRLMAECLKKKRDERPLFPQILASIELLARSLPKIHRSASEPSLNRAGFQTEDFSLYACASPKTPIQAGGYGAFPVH
Serine/threonine-protein kinase B-raf (Homo sapiens), sequence (P15056 whole entry): as the sequence (P15056 whole entry V600E) above, with E600V counted along it

## O=C(NCCNc1nccc(-c2c(-c3cccc(O)c3)nc3sccn23)n1)c1ccccc1
A-375 [1]
  IC50: 180 nM
UACC-62 [2]
  Activity: 53.33%
UACC-62 [3]
  IC50: 180 nM
MDA-MB-435
  IC50: 180 nM
[4]
  IC50: 190 nM
SK-MEL-28
  IC50: 180 nM

## O=C1Nc2ccccc2/C1=C\c1c(-c2ccc(Br)cc2)nc2scc(-c3cc4ccccc4oc3=O)n12
MCF7
  IC50: 10800 nM
HeLa [5]
  IC50: 6770 nM

## O=[N+]([O-])c1cccc(-c2nc3sccn3c2-c2ccnc(NCCCNS(=O)(=O)c3cccc(F)c3)n2)c1
Ovarian cancer cell line
  inhibition (INH): >80%
[6]
  inhibition (INH): >80%
A-375 [7]
  IC50: 2990 nM
[8]
  IC50: 80000 nM
Prostatic carcinoma cell
  inhibition (INH): >90%
Breast carcinoma cell
  inhibition (INH): >80%
CNS carcinoma cell
  inhibition (INH): 70%
Renal cancer cell line
  inhibition (INH): >70%
Leukemic tumor cell line
  inhibition (INH): >90%
[9]
  inhibition: 99.6%
[10]
  inhibition (INH): >80%
[11]
  IC50: 21 nM
[12]
  inhibition: 66.3%
Melanoma tumor cell line
  inhibition (INH): 100%

## C/C(=N\N=C1\S/C(=N\Nc2ccc(Br)cc2)C(=O)N1N)c1sc2nc(-c3ccc(C)cc3)cn2c1C
HCT-116
  IC50: 1100 nM

## C/C(=N\N=C1\S/C(=N\Nc2ccccc2)C(=O)N1N)c1sc2nc(-c3ccc(C)cc3)cn2c1C
HCT-116
  IC50: 1100 nM

## COc1cccc2c1C(=O)c1c(O)c3c(c(O)c1C2=O)C[C@@](O)(C(=O)CO)C[C@@H]3O[C@H]1C[C@H](N)[C@H](O)[C@H](C)O1 [DOXORUBICIN]
MDA-MB-231 [13]
  IC50: 1800 nM

## O=C(Cc1csc2nc(-c3ccc(Cl)cc3)cn12)N/N=C/c1ccccc1O
NCI-H322M
  GI50: 1550 nM
NCI-H460
  GI50: 1380 nM
HL-60(TB)
  Activity: 103.5%
CAKI-1
  GI50: 776 nM
MDA-MB-231 [14]
  GI50: 1580 nM
SR [15]
  GI50: 603 nM
DU-145
  Activity: 108.65%
HCT-15
  GI50: 468 nM
SR [16]
  Activity: 11.51%
SF-268
  GI50: 1260 nM
UO-31
  GI50: 501 nM
CCRF-CEM
  GI50: 741 nM
OVCAR-3
  GI50: 363 nM

## COc1ccc(-c2nc3sccn3c2/C=N/NC(=O)c2cccc(O)c2)cc1
MDA-MB-231 [17]
  Activity: 72.4%

## CNC(=O)c1cc(Oc2ccc(NC(=O)Nc3ccc(Cl)c(C(F)(F)F)c3)cc2)ccn1 [SORAFENIB]
A-375 [7]
  IC50: 10300 nM
A-375 [1]
  IC50: 1950 nM
UACC-62 [3]
  IC50: 1950 nM
MDA-MB-435
  IC50: 1950 nM
SK-MEL-28
  IC50: 1950 nM
OVCAR-3
  GI50: 2950 nM

## COc1ccc(C(=O)/C=C/c2cn3c(n2)sc2ccccc23)cc1
MDA-MB-231 [13]
  IC50: 1200 nM

## O=C(Cc1csc2nc3ccccc3n12)Nc1cccc2ccccc12
HeLa [18]
  IC50: 2490 nM
L02
  IC50: > 100000 nM
HUVEC
  IC50: > 100000 nM
HepG2
  IC50: > 100000 nM

## COc1cc(C(=O)N/N=C/c2c(-c3ccc(F)cc3)nc3sccn23)cc(OC)c1OC
MDA-MB-231 [17]
  Activity: 75.8%
